Measured values: the NIST ThermoML archive (doi:10.1016/j.jct.2009.05.008)
Numbers after ± are expanded uncertainties.

Assays:
[1] = 298.15 K; 101.33 kPa; Liquid; Vibrating tube method
[2] = refractive index (Na D-line) (dimensionless); settings: 298.15 K; 101.33 kPa; Liquid; Standard Abbe refractometry

- mass density [1]: 1219.61 ± 1.1 kg/m3
- refractive index [2]: 1.50591 ± 0.00075
Structure (SMILES): CCOS(=O)(=O)[O-].CC[n+]1cccc(C)c1 [1-ethyl-3-methylpyridinium ethylsulfate]
